Drawing on ChEMBL document CHEMBL1139867, “Discovery of the HCV NS3/4A protease inhibitor (1R,5S)-N-[3-amino-1-(cyclobutylmethyl)-2,3-dioxopropyl]-3- [2(S)-[[[(1,1-dimethylethyl)amino]carbonyl]amino]-3,3-dimethyl-1-oxobutyl]- 6,6-dimethyl-3-azabicyclo[3.1.0]hexan-2(S)-carboxamide (Sch 503034) II. Key steps in structure-based optimization” (J Med Chem, 2007), this text covers Ki for 33 compounds.

This test has as its target Hepatitis C virus serine protease, NS3/NS4A (Hepatitis C virus, UniProt A3EZI9+D2K2A8). As to the kind of experiment: Inhibition of HCV genotype H 1a NS3/4A protease. The class given is protein-complex assay.

Some results are limits rather than exact numbers.

Chain of Hepatitis C virus serine protease, NS3/NS4A (D2K2A8 whole entry): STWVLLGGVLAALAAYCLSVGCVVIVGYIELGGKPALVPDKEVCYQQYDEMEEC
Chain of Hepatitis C virus serine protease, NS3/NS4A (A3EZI9 whole entry): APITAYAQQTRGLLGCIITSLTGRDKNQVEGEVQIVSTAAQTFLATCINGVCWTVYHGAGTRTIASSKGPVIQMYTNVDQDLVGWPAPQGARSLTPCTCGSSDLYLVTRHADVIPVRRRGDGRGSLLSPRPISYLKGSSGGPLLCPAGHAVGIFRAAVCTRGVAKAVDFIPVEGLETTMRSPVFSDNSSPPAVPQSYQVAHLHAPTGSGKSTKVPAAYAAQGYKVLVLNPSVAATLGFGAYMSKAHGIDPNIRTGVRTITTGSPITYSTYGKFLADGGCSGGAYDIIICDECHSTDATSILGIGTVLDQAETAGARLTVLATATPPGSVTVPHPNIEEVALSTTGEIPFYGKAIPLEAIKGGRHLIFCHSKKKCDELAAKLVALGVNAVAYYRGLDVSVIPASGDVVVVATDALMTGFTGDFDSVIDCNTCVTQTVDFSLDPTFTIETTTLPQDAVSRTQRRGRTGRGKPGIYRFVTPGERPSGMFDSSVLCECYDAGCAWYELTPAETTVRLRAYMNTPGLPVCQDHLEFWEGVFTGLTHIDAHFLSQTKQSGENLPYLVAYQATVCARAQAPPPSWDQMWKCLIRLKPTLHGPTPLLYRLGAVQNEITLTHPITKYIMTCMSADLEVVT

For orientation: Ki means a dissociation constant, usually derived from enzyme kinetics or from competition with a known ligand. A lower Ki goes with higher affinity. In turn, `CC(C)(C)NC(=O)NC(C(=O)N1C[C@H]2[C@@H](C1C(=O)N[C@@H](CC1CC1(F)F)C(=O)C(N)=O)C2(C)C)C(C)(C)C` (stereo partly drawn) returned a Ki of 50 nM.
The figure for `CCCC[C@H](NC(=O)C1[C@@H]2[C@H](CN1C(=O)C(NC(=O)OC(C)(C)C)C(C)(C)C)C2(C)C)C(=O)C(N)=O` (stereo partly drawn) is 360 nM.
As for `CCC[C@H](NC(=O)C1[C@@H]2[C@H](CN1C(=O)C(NC(=O)NC(C)(C)C)C1CCCCC1)C2(C)C)C(=O)C(N)=O` (stereo partly drawn), the figure is 54 nM; as for `CC(C)[C@H](NC(=O)NC(C)(C)C)C(=O)N1C[C@H]2[C@@H](C1C(=O)N[C@@H](CC1CC1)C(=O)C(N)=O)C2(C)C` (stereo partly drawn), 100 nM; as for `CC(C)(C)NC(=O)NC(C(=O)N1C[C@H]2[C@@H](C1C(=O)N[C@@H](CC1CC1)C(=O)C(N)=O)C2(C)C)C(C)(C)C` (stereo partly drawn), 13 nM.
The figure for `COC(=O)NC(C(=O)N1C[C@H]2[C@@H](C1C(=O)N[C@@H](CC1CC1)C(=O)C(N)=O)C2(C)C)C1CCCCC1` (stereo partly drawn) is 800 nM; for `CC(C)(C)OC(=O)NC(C(=O)N1C[C@H]2[C@@H](C1C(=O)N[C@@H](CC1CCC1)C(=O)C(N)=O)C2(C)C)C1CCCCC1` (stereo partly drawn) it is 25 nM; for `CC(C)(C)NC(=O)NC(C(=O)N1C[C@H]2[C@@H](C1C(=O)N[C@@H](CC1CCC1)C(=O)C(N)=O)C2(F)F)C(C)(C)C` (stereo partly drawn) it is 140 nM.
Consider `CC(C)(C)NC(=O)NC(C(=O)N1C[C@H]2[C@@H](C1C(=O)N[C@@H](CC1CCC1)C(=O)C(N)=O)C2(Cl)Cl)C(C)(C)C` (stereo partly drawn), for which the Ki stood at 19 nM.
As for `CCOC(=O)NC(C(=O)N1C[C@H]2[C@@H](C1C(=O)N[C@@H](CC1CC1)C(=O)C(N)=O)C2(C)C)C1CCCCC1` (stereo partly drawn), the figure is 230 nM; as for `CC(C)(C)NC(=O)NC(C(=O)N1CCC[C@H]1C(=O)N[C@@H](CC1CCC1)C(=O)C(N)=O)C(C)(C)C` (stereo partly drawn), 5000 nM.
As for `CCC(NC(=O)C1[C@@H]2[C@H](CN1C(=O)C(NC(=O)OC(C)(C)C)C1CCCCC1)C2(C)C)C(=O)C(N)=O` (stereo partly drawn), the figure is 740 nM; as for `CC(C)(C)OC(=O)NC(C(=O)N1C[C@H]2[C@@H](C1C(=O)N[C@@H](CC1CCCCC1)C(=O)C(N)=O)C2(C)C)C1CCCCC1` (stereo partly drawn), greater than 12000 nM.
As for `CC(C)(C)NC(=O)NC(C(=O)N1C[C@H]2[C@@H](C1C(=O)N[C@@H](CC1CCC1)C(=O)C(N)=O)C2(C)C)C(C)(C)C` (stereo partly drawn), the figure is 14 nM; as for `CC(C)(C)NC(=O)NC(C(=O)N1C[C@@H]2OC(C)(C)[C@@H]2C1C(=O)N[C@@H](CC1CC1)C(=O)C(N)=O)C(C)(C)C` (stereo partly drawn), 960 nM; as for `CC(C)(C)NC(=O)NC(C(=O)N1C[C@@H]2OC(C)(C)C[C@@H]2C1C(=O)N[C@@H](CC1CCC1)C(=O)C(N)=O)C(C)(C)C` (stereo partly drawn), 500 nM.
`CC(C)(C)OC(=O)NC(C(=O)N1C[C@H]2[C@@H](C1C(=O)N[C@@H](CC1CCCC1)C(=O)C(N)=O)C2(C)C)C1CCCCC1` (stereo partly drawn) yielded an inhibitory constant (Ki) of 150 nM.
As for `CC(C)(C)OC(=O)NC(C(=O)N1C[C@H]2[C@@H](C1C(=O)N[C@@H](CC1CC1)C(=O)C(N)=O)C2(C)C)C1CCCCC1` (stereo partly drawn), the figure is 25 nM; as for `CC(C)C[C@H](NC(=O)C1[C@@H]2[C@H](CN1C(=O)C(NC(=O)OC(C)(C)C)C1CCCCC1)C2(C)C)C(=O)C(N)=O` (stereo partly drawn), 400 nM; as for `CC(=O)N[C@H](C(=O)NC(C(=O)N1C[C@H]2[C@@H](C1C(=O)N[C@@H](CC1CCC1)C(=O)C(N)=O)C2(C)C)C(C)(C)C)C(C)C` (stereo partly drawn), 38 nM.
The figure for `CC(=O)N[C@H](C(=O)NC(C(=O)N1C[C@H]2[C@@H](C1C(=O)N[C@@H](CC1CC1)C(=O)C(N)=O)C2(C)C)C1CCCCC1)C(C)C` (stereo partly drawn) is 68 nM; for `CC(C)(C)NC(=O)NC(C(=O)N1C[C@H]2[C@@H](C1C(=O)NC(C(=O)C(N)=O)C1CCC1)C2(C)C)C(C)(C)C` (stereo partly drawn) it is 100 nM; for `CC(C)(C)OC(=O)NC(C(=O)N1C[C@H]2[C@@H](C1C(=O)NC(C(=O)C(N)=O)C(C)(C)C)C2(C)C)C(C)(C)C` (stereo partly drawn) it is greater than 69000 nM.
The figure for `CC(C)(C)NC(=O)NC(C(=O)N1C[C@H]2[C@@H](C1C(=O)NC(C(=O)C(N)=O)C1CCCC1)C2(C)C)C(C)(C)C` (stereo partly drawn) is 1800 nM.
Compound `CCC[C@H](NC(=O)C1[C@@H]2[C@H](CN1C(=O)C(NC(=O)OC(C)(C)C)C1CCCCC1)C2(C)C)C(=O)C(N)=O` (stereo partly drawn) returned a Ki of 100 nM.
The figure for `CC(C)C[C@H](NC(=O)C(NC(=O)OC(C)(C)C)C(C)(C)C)C(=O)N[C@@H](CC1CCC1)C(=O)C(N)=O` (stereo partly drawn) is 15000 nM; for `CCC[C@H](NC(=O)C1[C@@H]2[C@H](CN1C(=O)C(NC(=O)OC(C)(C)C)C(C)(C)C)C2(C)C)C(=O)C(N)=O` (stereo partly drawn) it is 220 nM.
The figure for `CC(C)OC(=O)NC(C(=O)N1C[C@H]2[C@@H](C1C(=O)N[C@@H](CC1CC1)C(=O)C(N)=O)C2(C)C)C1CCCCC1` (stereo partly drawn) is 60 nM; for `CC(C)(C)C[C@H](NC(=O)C1[C@@H]2[C@H](CN1C(=O)C(NC(=O)OC(C)(C)C)C(C)(C)C)C2(C)C)C(=O)C(N)=O` (stereo partly drawn) it is greater than 3300 nM; for `CC(C)(C)NC(=O)NC(C(=O)N1C[C@H]2[C@@H](C1C(=O)N[C@@H](CC1CC(F)(F)C1)C(=O)C(N)=O)C2(C)C)C(C)(C)C` (stereo partly drawn) it is 115 nM.
As for `CC(C)(C)NC(=O)NC(C(=O)N1C[C@H]2[C@@H](C1C(=O)N[C@@H](CC1CC1)C(=O)C(N)=O)C2(C)C)C1CCCCC1` (stereo partly drawn), the figure is 50 nM.
In turn, `CC(C)C[C@H](NC(=O)C1[C@@H]2[C@H](CN1C(=O)C(NC(=O)OC(C)(C)C)C(C)(C)C)C2(C)C)C(=O)C(N)=O` (stereo partly drawn) came in with a Ki of 480 nM.
Take `CC(C)(C)NC(=O)NC(C(=O)N1C[C@H]2[C@@H](C1C(=O)NC(C(=O)C(N)=O)C1CC1)C2(C)C)C(C)(C)C` (stereo partly drawn): affinity was put at a Ki of 1600 nM.
